System: HepG2 13C-glycerol triglyceride synthesis, LC-MS, 24 h
Experiment: TAG formation decrease in hepatoma cells – cell-based, HepG2, LC-MS, 13C-glycerol labeling, cherry-pick, mechanism study for Trib1 inducer project, late-stage follow-up (AID 1053150)
Conditions: active compounds read high; dose or concentration not given here

Work on `CN1C(=O)c2cc(NC(=O)c3ccc(C(F)(F)F)cc3)ccc2OC[C@@H]2O[C@H](CC(=O)NC3Cc4ccccc4C3)CC[C@@H]21` yielded a TAG formation rate inhibition of 2%.

Reference: PubChem BioAssay AID1053150 (Broad Institute, 2014)
